# Measurements from patent US20250042873A1, “COMPOSITIONS AND METHODS FOR TREATING PROTEOTOXICITY-ASSOCIATED DISEASES” (priority 2021, published 2025).
# “Also recorded” adds a separate entry of the source.
# What was measured:
# SOD1G93A ALS mouse model [1] = test: Motor performance in the SOD1G93A ALS mouse model (Rotarod behavioral assays); format: in vivo; conditions: intraperitoneal injections at the same drug concentration, compared with UNC669, FIG. 3J
# Experimental: The effect of UNC669 was tested on one of the most characterized mouse model of proteotoxicity, the SOD1G93A ALS model.
# A number of the newly synthesized UNC669 analogs have been tested for their effects on the clearance of misfolded proteins in the cells.
# [2] = system: tau protein expressed in human HEK293 cells; test: Clearance of tau protein expressed in human HEK293 cells; format: cell-based; conditions: FIG. 4B
# [3] = Brain penetration and pharmacokinetic studies using mass spectrometry analysis after intraperitoneal administration; format: in vivo; conditions: mice; for blood-brain barrier penetration (detection in brain and spinal cord tissues): within minutes after intraperitoneal administration, mass spectrometry
# SOD1G93A ALS mouse model [4] = conditions: SOD1G93A mice, 17 mg/kg intraperitoneal, weekly from 8 weeks of age, after 12 weeks, FIG. 2B (prior art); cited from earlier work
# [5] = system: misfolded mutant SOD1 in the spinal cords; conditions: FIG. 2D (prior art), cited from earlier work
blood-brain barrier penetration (detection in brain and spinal cord tissues) [3],"concentrations in the plasma, brain, or spinal cords ([3]; 3 hours after intraperitoneal administration, FX8 vs FX6 or UNC669, FIG. 3I)",SMILES,effect on improving motor performance (Rotarod) (SOD1G93A ALS mouse model [1]),clearance / levels of tau protein [2],motor ability / motor performance of the animals (SOD1G93A ALS mouse model [4]),neuronal / motor neuron health (CHAT staining) ([5]; SOD1-G93A mice spinal cords),immunostaining of spinal cords with antibody specific for misfolded proteins ([5]; SOD1-G93A mice)
can penetrate the blood-brain barrier,,O=C(c1cncc(Cl)c1)N1CCC(N2CCCC2)CC1 [FX6],greater effects on improving the animals' motor performance,higher efficacy,,,
,,O=C(c1cncc(Br)c1)N1CCC(N2CCCC2)CC1 [UNC669],,decrease the levels of tau proteins; also recorded: enhanced clearance of tau protein,improvement in the animals' motor performance; also recorded: improves the motor ability of the animals,improved the health of the motor neurons; also recorded: improved neuronal health,reduction of the mutant protein
can penetrate the blood-brain barrier,highest levels of accumulation,N#Cc1cccc(C(=O)N2CCC(N3CCCC3)CC2)n1 [FX8],greater effects on improving the animals' motor performance,higher efficacy,,,
